The source made the active and inactive calls.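 Rule for the calls: active = any compound with an IC50 of 100 nM or lower; inactive = the rest.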
Biological target: Insulin-degrading enzyme (Homo sapiens) (UniProt P14735)
Experiment: IDE catalytic activity blockers, fluorogenic substrate – biochemical, kinetic mode, counter-screen for IDE exo-site inhibitor project, dose response (AID 1259348);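 for z-score: purified IDE bound to fluorescein-labelled 6b probe FL-6b at the exo-site; probe displacement lowers polarization so hits show a drop in FP signal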
Conditions: purified human IDE, fluorogenic decapeptide proteolysis; for z-score: measured here: primary FP probe displacement screen, stronger effect = lower value

Sequence of Insulin-degrading enzyme (Homo sapiens) (P14735 42-1019 limits assumed): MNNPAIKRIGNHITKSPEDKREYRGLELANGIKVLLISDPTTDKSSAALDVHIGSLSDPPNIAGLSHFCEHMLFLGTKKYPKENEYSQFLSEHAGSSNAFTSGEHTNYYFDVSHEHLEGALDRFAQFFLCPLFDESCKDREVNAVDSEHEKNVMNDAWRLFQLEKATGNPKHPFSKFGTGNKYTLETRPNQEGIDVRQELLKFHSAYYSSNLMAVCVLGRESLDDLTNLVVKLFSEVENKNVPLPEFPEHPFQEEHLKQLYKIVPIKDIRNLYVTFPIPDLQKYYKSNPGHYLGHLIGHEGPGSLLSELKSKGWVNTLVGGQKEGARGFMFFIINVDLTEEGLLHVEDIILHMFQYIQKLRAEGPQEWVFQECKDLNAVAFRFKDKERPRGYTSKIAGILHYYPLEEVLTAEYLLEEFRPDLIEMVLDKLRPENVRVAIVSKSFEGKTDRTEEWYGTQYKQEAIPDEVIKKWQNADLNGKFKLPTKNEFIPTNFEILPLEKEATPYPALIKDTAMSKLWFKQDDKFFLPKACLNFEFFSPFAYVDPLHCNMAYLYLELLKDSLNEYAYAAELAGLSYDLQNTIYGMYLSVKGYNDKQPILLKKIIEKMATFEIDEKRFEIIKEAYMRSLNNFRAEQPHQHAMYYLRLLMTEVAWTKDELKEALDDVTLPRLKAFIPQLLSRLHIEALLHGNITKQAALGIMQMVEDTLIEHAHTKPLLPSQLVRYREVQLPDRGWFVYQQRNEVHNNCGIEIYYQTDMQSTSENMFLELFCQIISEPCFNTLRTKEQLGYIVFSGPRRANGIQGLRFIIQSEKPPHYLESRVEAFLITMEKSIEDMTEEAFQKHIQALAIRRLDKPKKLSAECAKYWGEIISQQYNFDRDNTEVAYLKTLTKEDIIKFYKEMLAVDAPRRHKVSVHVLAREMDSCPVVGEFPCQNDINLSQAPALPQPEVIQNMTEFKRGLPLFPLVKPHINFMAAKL

IC50	z-score	SMILES
2.6 µM	-19.1	COc1ccccc1-c1ccc([C@H]2[C@@H](CO)N3CCCCN(C(=O)NC4CCCC4)C[C@H]23)cc1
6.7 µM	-2.59	Cc1ccccc1-c1ccc(C2[C@@H]3CN(Cc4cncnc4)C[C@H]2N3)cc1 (stereo partly specified)
3.1 µM	-16.5	Cc1ccccc1-c1ccc([C@H]2[C@@H](CO)N3CCCCN(C(=O)c4cccnc4)C[C@H]23)cc1
2.6 µM	-19.7	Cc1ccccc1-c1ccc([C@@H]2[C@H]3CN(C(=O)c4cccnc4)CC(=O)N3[C@H]2CO)cc1
5.2 µM	-15.1	OC[C@H]1[C@@H](c2ccc(C#Cc3ccccc3F)cc2)[C@@H]2CN(Cc3cncnc3)CCCCN12
3.6 µM	-8.13	Cc1ccccc1-c1ccc([C@@H]2[C@H](CO)N3C(=O)CN(C(=O)NC4CCCC4)C[C@@H]23)cc1
2.8 µM	-14.2	CO[C@H]1CN(C)C(=O)c2cc(NC(=O)c3ccc(Oc4ccccc4)cc3)ccc2OC[C@H](C)NC[C@H]1C
8.8 µM	-13.8	O=C(c1ccncc1)N1C[C@@H]2N[C@H](C1)C2c1ccc(/C=C/c2ccccc2)cc1 (stereo partly specified)
5.3 µM	-19.3	O=C(C1CCOCC1)N1CC(=O)N2[C@H](CO)[C@H](c3ccc(C#Cc4cccc(F)c4)cc3)[C@H]2C1
0.1 µM	-20.3	Cc1cccc(-c2ccc([C@@H]3[C@@H](CO)N4CCCCN(S(=O)(=O)c5ccccc5C)C[C@@H]34)cc2)c1
20 µM	-16.3	COc1ccccc1-c1ccc([C@H]2[C@@H](CO)N(C(=O)NC(C)C)[C@H]2C#N)cc1
1.7 µM	-18.5	Cc1ccccc1-c1ccc([C@@H]2[C@H]3CN(S(=O)(=O)c4cn(C)cn4)CCCCN3[C@H]2CO)cc1
1.55 µM	-19	Cc1ccccc1-c1ccc([C@@H]2[C@H](CO)N3CCCCN(C(=O)NC4CCCC4)C[C@@H]23)cc1
2 µM	-17.2	Cc1ccccc1-c1ccc([C@H]2[C@@H](CO)N3C(=O)CN(C(=O)c4cccnc4)C[C@H]23)cc1
16 µM	-5.29	COCC(=O)N1CCCCN2[C@H](CO)[C@@H](c3ccc(-c4cccc(C)c4)cc3)[C@@H]2C1
3.4 µM	-0.82	COc1ccc(NC(=O)N2CCCCN3[C@H](CO)[C@H](c4ccc(-c5ccccc5C)cc4)[C@@H]3C2)cc1
4.5 µM	-7.39	Cc1ccccc1-c1ccc([C@H]2[C@H](CO)N3C(=O)CN(C(=O)c4ccncc4)C[C@@H]23)cc1
10.7 µM	-8.24	CCC(=O)N1[C@H](CO)[C@H](c2ccc(-c3ccccc3OC)cc2)[C@H]1CNC(C)=O
2.2 µM	-16.6	Cc1ccccc1-c1ccc([C@H]2[C@@H](CO)N3CCCCN(S(=O)(=O)c4cn(C)cn4)C[C@H]23)cc1
4 µM	-3.03	Cc1ccccc1-c1ccc([C@H]2[C@H](CO)N3C(=O)CN(C(=O)Nc4cccc(F)c4)C[C@@H]23)cc1
30 µM		COc1cccc(-c2ccc([C@@H]3[C@@H](CO)N4CCCCN(CC5CCOCC5)C[C@@H]34)cc2)c1
0.37 µM	-20.8	Cc1ccccc1-c1ccc([C@H]2[C@H](CO)N3C(=O)CN(C(=O)NC4CCCC4)C[C@@H]23)cc1
11.9 µM	-6.65	Cc1cccc(-c2ccc([C@@H]3[C@@H](CO)N4CCCCN(Cc5cncnc5)C[C@@H]34)cc2)c1
> 100 µM (inactive)	-3.44	Cc1ccccc1-c1ccc([C@H]2[C@@H](CO)N3CCCCN(S(=O)(=O)c4cn(C)cn4)C[C@@H]23)cc1
2.9 µM	-1.37	Cc1ccccc1-c1ccc([C@H]2[C@@H](CO)N3CCCCN(C(=O)Nc4ccccc4)C[C@@H]23)cc1

IC50	z-score	SMILES
4.2 µM	-17.7	Cc1cccc(-c2ccc([C@@H]3[C@H]4CN(C(=O)c5cccnc5)CC(=O)N4[C@H]3CO)cc2)c1
2.2 µM	-9.03	Cc1ccccc1-c1ccc(C2[C@@H]3CN(C(=O)Cc4ccncc4)C[C@H]2N3)cc1 (stereo partly specified)
6 µM	-12.4	Cc1ccccc1-c1ccc([C@H]2[C@H]3CN(C(=O)NC4CCCC4)CC(=O)N3[C@H]2CO)cc1
13 µM	-7.98	Cc1ccccc1-c1ccc([C@@H]2[C@@H](CO)N3CCCCN(C(=O)c4cccnc4)C[C@@H]23)cc1
0.67 µM	-16.6	Cc1cccc(-c2ccc([C@@H]3[C@@H](CO)N4C(=O)CN(C(=O)NC5CCCCC5)C[C@@H]34)cc2)c1
6.4 µM	-8	Cc1ccccc1-c1ccc([C@@H]2[C@@H](CO)N3CCCCN(C(=O)CN4CCOCC4)C[C@@H]23)cc1
6.3 µM	-12	COc1ccccc1-c1ccc([C@H]2[C@H](C#N)N[C@@H]2CO)cc1
> 100 µM (inactive)		Cc1cccc(-c2ccc([C@@H]3[C@@H](CO)N4CCCCN(C(=O)c5ccc6c(c5)OCO6)C[C@@H]34)cc2)c1
4.9 µM	-17.2	COc1ccccc1-c1ccc([C@H]2[C@@H](CO)N3CCCCN(C(=O)c4ccncc4)C[C@H]23)cc1
0.9 µM	-17.5	Cc1cccc(-c2ccc([C@@H]3[C@@H](CO)N4CCCCN(S(=O)(=O)c5cn(C)cn5)C[C@@H]34)cc2)c1
6.6 µM	-15.2	Cc1cccc(-c2ccc([C@@H]3[C@H]4CN(C(=O)c5cccnc5)CCCCN4[C@H]3CO)cc2)c1
2 µM	-20	Cc1ccccc1-c1ccc(C2[C@@H]3CN(C(=O)c4cnccn4)C[C@H]2N3)cc1 (stereo partly specified)
3.2 µM	-16.3	Cc1cccc(-c2ccc([C@H]3[C@H](CO)N4C(=O)CN(C(=O)NC5CCCCC5)C[C@@H]34)cc2)c1
> 100 µM (inactive)	-17.5	COc1ccccc1C#Cc1ccc([C@H]2[C@H]3CN(C(=O)C4CCC4)CCCCN3[C@H]2CO)cc1
0.4 µM	-19.3	Cc1ccccc1-c1ccc([C@H]2[C@@H](CO)N3CCCCN(C(=O)NC4CCCC4)C[C@@H]23)cc1
13.2 µM	-12.8	COc1ccccc1-c1ccc([C@H]2[C@@H](CO)N3CCCCN(C(=O)c4cccnc4)C[C@H]23)cc1
7.1 µM	-15.9	O=C(CC1CC1)N1CC(=O)N2[C@H](C1)[C@H](c1ccc(C#Cc3ccccc3)cc1)[C@@H]2CO
0.88 µM	-14.8	O=C(NC1CCCC1)N1CCCCN2[C@@H](CO)[C@H](c3ccc(/C=C/c4ccccc4)cc3)[C@@H]2C1
3 µM	-18.3	Cc1cccc(-c2ccc([C@H]3[C@@H](CO)N4CCCCN(C(=O)c5ccncc5)C[C@H]34)cc2)c1
6.1 µM	-12.4	Cc1ccccc1-c1ccc([C@H]2[C@H](CO)N3C(=O)CN(C(=O)c4cccnc4)C[C@@H]23)cc1
1.8 µM	-19.7	CCS(=O)(=O)N1CCCCN2[C@@H](CO)[C@@H](c3ccc(C#Cc4ccccc4OC)cc3)[C@@H]2C1
11.5 µM	-13.2	O=C(NC1CCCC1)N1CCCCN2[C@H](C1)[C@H](c1ccc(/C=C/c3ccccc3)cc1)[C@@H]2CO
3.4 µM	-17	Cc1cccc(-c2ccc([C@H]3[C@@H](CO)N4CCCCN(C(=O)c5cccnc5)C[C@H]34)cc2)c1
22.5 µM	-2.88	COc1cccc(-c2ccc([C@@H]3[C@@H](CO)N4CCCCN(CC5CC5)C[C@@H]34)cc2)c1
